Results reported in patent publication US9107879B1, “Methods of increasing the cytotoxicity of chemotherapeutic agents with multisubstrate inhibitors of histone, protein-lys, polyamine acetylation, and polyamine metabolism” (Vanderbilt University, priority 2010, dated 2015).

Tests used:
[1] = system: H358 cells; assay: trypan blue exclusion viability assay; format: cell-based; conditions: human
Procedure: Cells were either labeled immediately before treatment (starting DNA synthesis rate), or subjected to the indicated treatments and then pulsed on successive days until day 4. DNA synthesis is represented as the percent of starting DNA synthesis rate. Viability was determined for each treatment condition 24 hours post-start of treatment by the trypan blue exclusion assay, with percentages of viable cells indicated to the right of the graph. […]
Cell viability, measured 18 hours after the start of each treatment by the trypan blue exclusion assay, a measure of cellular membrane integrity, confirmed that single agent treatment with either 1a or camptothecin had essentially no effect on cell viability (≧96% viability for untreated cells or single agent-treated cells).
The present inventors used 96-well viability assays as described in Saadatmandi et al (Cancer Gene Therapy (2002) 9:930-9) to examine the effect of 1a on DNA synthesis in H358 cells, as well as the combined effects of 1a and chemotherapeutic agents. […] Following the 6-hour labeling, cells were harvested and incorporation of [^3H]-thymidine was determined by scintillation counting. […] We measured cell viability 24 hours after the start of each treatment by the trypan blue exclusions assay, a measure of cellular membrane breakdown.

[2] = system: DU145 prostate cancer cells; format: cell-based; conditions: camptothecin 5 nM; 2a 10 μM
Procedure: Cells were plated in 96-well plates at 2000 cells per well and treated with the indicated doses of spd-3a. Cell viability was measured by the MTS assay 3 days later.

| Structure (SMILES) | cell viability, trypan blue exclusion ([1]; 18 h) | cell viability, trypan blue exclusion ([1]; 24 h) | effect on cell viability, single agent [2] |
| --- | --- | --- | --- |
| CC(C)(COP(=O)(O)OP(=O)(O)OC[C@H]1O[C@@H](n2cnc3c(N)ncnc32)[C@H](O)[C@@H]1OP(=O)(O)O)[C@@H](O)C(=O)NCCC(=O)NCCSCC(=O)NCCCNCCCCN [1a, spermidine[N1]-CoA] | ≥ 96% | ≥ 96% | – |
| CC[C@@]1(O)C(=O)OCc2c1cc1n(c2=O)Cc2cc3ccccc3nc2-1 [camptothecin] | – | – | minimal effects |
